Common to all, as to format: cell-based
The target in one experiment is T1, Rat GPR40 (Rattus norvegicus, UniProt Q8K3T4).
T1 construct: expressed in transfected cells
The experiment is described as follows: EC50 by FLIPR calcium assay in CHO cells stably expressing rat GPR40. On the procedure: (§1) For determination of EC50 values, the CHO cell lines in which human-, mouse- and rat-derived GPR40 was stably expressed were used. Unless otherwise indicated, these CHO cell lines were incubated in α-MEM medium (Invitrogen) supplemented with 10% fetal calf serum (Invitrogen).
(§2) On the day before assay, the cells incubated to almost confluent stage were rinsed with PBS (Invitrogen), then scraped in 0.05% trypsin-EDTA solution (Invitrogen) and recovered by centrifugal operation. The number of the cells obtained was counted and diluted so as to contain 3×10^5 cells/1 mL of the medium. The dilution was dispensed in a Black welled 96-well plate (Coster) in 100 μL/well, followed by incubation overnight in a CO2 incubator. To the thus prepared CHO cells, various test samples were added and the changes in intracellular calcium level in this case were measured using FLIPR (Molecular Device). In order to determine the changes in the intracellular calcium ion level on FLIPR, the cells were pre-treated by the following procedures.
(§3) First, for the purpose of adding a fluorescent dye Fluo-3 AM (DOJIN) to the cells or washing the cells immediately before the FLIPR assay, an assay buffer was prepared. A solution obtained by adding 20 mL of 1M HEPES (pH 7.4) (DOJIN) to 1000 mL of HBSS (Invitrogen) was prepared (hereinafter HBSS/HEPES solution), to which 10 mL of a solution mixture obtained by dissolving 710 mg of Probenecid (Sigma) in 5 mL of 1N NaOH and further adding 5 mL of HBSS/HEPES solution was added. The resulting solution was used as the assay buffer. Next, 50 μg of Fluo-3AM was dissolved in 21 μL of DMSO (Wako) and an equal volume of 20% Pulronic acid (Molecular Probes) was added to and mixed with the solution. The mixture was then added to 10.6 mL of the assay buffer supplemented with 105 μL of fetal calf serum to prepare a fluorescent dye solution. […], the medium for the CHO cells again plated in a Black welled 96-well plate was removed. Immediately thereafter, the fluorescent dye solution was dispensed in 100 μL each/well and the cells were incubated in a CO2 incubator for an hour so that the fluorescent dye was taken up into the cells. The cells after the incubation was washed with the assay buffer described above and set on FLIPR. […] After the pre-treatment above was made, the changes in intracellular calcium level after the addition of various test samples were measured on FLIPR.

Another experiment concerns the target T2, Mouse GPR40 (Mus musculus, UniProt Q76JU9).
T2 construct: expressed in transfected cells
The experiment is described as follows: EC50 by FLIPR calcium assay in CHO cells stably expressing mouse GPR40. On the procedure: as §1, §2, §3

A further experiment deals with T3, human GPR40 (Homo sapiens, UniProt O14842).
T3 construct: The resulting fragment (ca. 1 kb) was introduced into vector pAKKO-111, which was used for transfection of CHO cells; expressed in transfected cells
T3 sequence (O14842 whole entry, the tested form may be a part): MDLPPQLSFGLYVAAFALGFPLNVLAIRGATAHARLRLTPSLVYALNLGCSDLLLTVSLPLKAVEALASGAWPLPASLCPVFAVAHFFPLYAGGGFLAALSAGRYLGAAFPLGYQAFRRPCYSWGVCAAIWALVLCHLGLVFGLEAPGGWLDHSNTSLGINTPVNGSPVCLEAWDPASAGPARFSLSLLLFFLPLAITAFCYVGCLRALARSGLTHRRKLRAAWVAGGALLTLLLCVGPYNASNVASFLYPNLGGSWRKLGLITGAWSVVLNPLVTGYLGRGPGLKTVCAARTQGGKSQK
As to the kind of experiment: EC50 by FLIPR calcium assay in CHO cells stably expressing human GPR40. On the procedure: as §1, §2, §3

Experiment [1] deals with mouse pancreatic β cell line MIN6. As to the kind of experiment: Insulin secretion from MIN6 in KRBH buffer (immunoassay). The settings on record: 22 mM glucose KRBH, 90 minutes. As for the experimental part:
The mouse pancreatic β cell line MIN6 incubated in a flask was scraped in PBS containing 2.5 mM EDTA and plated in a 96-well plate followed by incubation for 2 days. The medium used was the same as in EXAMPLE 24, namely, 4.5 g/l of glucose-containing Dulbecco's Modified Eagle Medium (DMEM, Invitrogen, Inc.) supplemented with 15% fetal calf serum (ThermoTrace, Inc.), 5.5 μM 2-mercaptethanol (Invitrogen, Inc.), 20 mM HEPES pH 7.3, 100 U/ml penicillin and 100 μg/ml streptomycin. The cells were washed twice with modified Krebs-Ringer bicarbonate buffer (KRBH, 116 mM NaCl, 4.7 mM KCl, 1.2 mM KH2PO4, 1.2 mM MgSO4, 2.5 mM CaCl2, 25 mM NaHCO3, 24 mM HEPES, pH 7.3), followed by preincubation at 37° C. in 5% CO2 for 30 minutes. The fatty acid diluted/prepared using the aforesaid KRBH buffer added with 22 mM glucose was added to the cells after the preincubation, followed by incubation under the conditions of 37° C. in 5% CO2 for 90 minutes. After the incubation, the supernatant of the cells was recovered and stored in a frozen state. The insulin content in the supernatant was assayed using an insulin immunoassay kit commercially available (Amersham Pharmacia, Inc.).
Based on the method of EXAMPLE 25, effects of glucose level when added with fatty acids were examined. The level of glucose, which was added to KRBH upon the addition of fatty acids, was varied to 0, 5.5, 11 and 22 mM to study the effects.
The insulin secretion enhancing activity in the m40i103-introduced MIN6 cells using HVJ Envelope VECTOR KIT GenomONE based on the method of EXAMPLE 18 was examined. The insulin secretion enhancing activity by fatty acids was examined according to the method of EXAMPLE 25.
Based on the procedures of EXAMPLE 25, an essential prerequisite of Ca^2+ ions in the extracellular fluid was examined. In preincubation and incubation with a sample, Ca^2+ ions were removed and 0.1 mM EGTA, which was a reagent for chelating Ca^2+ ions, was further added, and then the insulin secretion enhancing activity by fatty acids was examined in this case.
Based on the method of EXAMPLE 25, effects of Ca^2+ channel blocker (Nifedipine) and MAP kinase inhibitor (PD98059) were examined. In preincubation and incubation with a sample, the insulin secretion enhancing activity by fatty acids was examined when Nifedipine (10 μM) or PD98059 (50 μM) was added.
It is known that fatty acids have the property of binding to albumin. Based on the method of EXAMPLE 25, effects were examined when bovine serum albumin (BSA) was present. In preincubation and incubation with a sample, the insulin secretion activity by fatty acids was examined when 0.1% BSA was added to the buffer.

Setting [2] is: intracellular calcium, FLIPR, stable CHO line, read-out: EC50 Rat GPR40.
Where [3] appears, read: intracellular calcium, FLIPR, stable CHO line, read-out: EC50 Mouse GPR40.
The mark [4] stands for this setting: intracellular calcium, FLIPR, stable CHO line, read-out: EC50 Human GPR40.
[5] abbreviates: intracellular calcium, FLIPR, stable CHO line.

Read-outs that look alike come from different tables or passages of the source.

T1 sequence (Q8K3T4 whole entry): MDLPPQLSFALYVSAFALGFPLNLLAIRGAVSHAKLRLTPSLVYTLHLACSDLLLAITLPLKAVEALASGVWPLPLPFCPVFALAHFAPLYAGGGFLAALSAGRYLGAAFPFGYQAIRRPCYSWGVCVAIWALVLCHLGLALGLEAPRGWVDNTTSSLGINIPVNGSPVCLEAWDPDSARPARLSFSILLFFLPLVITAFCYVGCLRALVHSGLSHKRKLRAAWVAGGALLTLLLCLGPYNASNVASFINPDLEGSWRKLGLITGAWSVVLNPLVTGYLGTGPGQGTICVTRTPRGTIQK
T2 sequence (Q76JU9 whole entry): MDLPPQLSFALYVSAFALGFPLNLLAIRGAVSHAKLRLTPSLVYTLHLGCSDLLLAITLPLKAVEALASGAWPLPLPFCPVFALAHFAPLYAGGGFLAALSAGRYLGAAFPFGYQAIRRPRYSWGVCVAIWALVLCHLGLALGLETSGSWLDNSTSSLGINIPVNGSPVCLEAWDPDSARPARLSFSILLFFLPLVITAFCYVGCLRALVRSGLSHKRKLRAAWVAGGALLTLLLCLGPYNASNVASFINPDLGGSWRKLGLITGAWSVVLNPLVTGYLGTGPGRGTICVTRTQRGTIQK

As for `CCCCCCCCCC(=O)O` [Capric acid (C10), Capric acid], the results for the EC50 on Rat GPR40 (setting [2]), on Mouse GPR40 (setting [3]) and at human GPR40 (setting [4]) were above 100 µM, above 100 µM and 43 ± 2.2 µM, respectively.

For `CCCCCC(=O)O` [Caproic acid (C6), Caproic acid], at Rat GPR40 (setting [2]), the EC50 was above 300 µM. Besides, the “EC50 Mouse GPR40” value at Mouse GPR40 (setting [5]) is “inactive”. In addition, on human GPR40 (setting [5]), the “EC50 Human GPR40” value was “inactive”.

In the case of `CC/C=C\C/C=C\C/C=C\CCCCCCCC(=O)O` [α-Linolenic acid (C18:3), α-Linolenic acid], the EC50 at Rat GPR40 is 4 ± 0.7 µM; at Mouse GPR40, 3.6 ± 0.3 µM; on human GPR40, 2 ± 0.3 µM. Further, the “insulin secretion enhancing activity” value in experiment [1] is “significantly noted”.

Regarding `CCCCCCCCCCCCCC(=O)O` [Myristic acid (C14), Myristic acid], the EC50 on Mouse GPR40 (setting [3]) turned out to be 6 ± 0.8 µM.

Consider `CC/C=C\C/C=C\C/C=C\C/C=C\C/C=C\CCCC(=O)O` [Eicosapentaenoic acid (C20:5), Eicosapentaenoic acid], for which the EC50 came out at 9.8 ± 0.6 µM at Rat GPR40 (setting [2]), 4.9 ± 0.8 µM at Mouse GPR40 (setting [3]) and 2.3 ± 0.4 µM on human GPR40 (setting [4]).

As for `CCCCCCCC/C=C/CCCCCCCC(=O)O` [Elaidic acid (C18:1), Elaidic acid], the EC50 on Rat GPR40 (setting [2]) stood at 11 ± 1.5 µM; on Mouse GPR40 (setting [3]) it was 6.5 ± 1.5 µM; on human GPR40 (setting [4]), 4.7 ± 0.4 µM.

Consider `CC(=O)O` [Acetic acid (C2), Acetic acid], for which, on Rat GPR40 (setting [5]), the “EC50 Rat GPR40” value was “inactive”. Moreover, on Mouse GPR40 (setting [5]), the “EC50 Mouse GPR40” value was “inactive”. The “EC50 Human GPR40” value on human GPR40 (setting [5]) was “inactive”.

For `CCCCCCCCCCCCCCCCCC(=O)O` [Stearic acid (C18), Stearic acid], the EC50 on Rat GPR40 (setting [2]), on Mouse GPR40 (setting [3]) and at human GPR40 (setting [4]) was above 300 µM in each case.

`CCCCCCCC(=O)O` [Caprylic acid (C8), Caprylic acid]: the 50% effective concentration (EC50) on Rat GPR40 (setting [2]) and at human GPR40 (setting [4]) was above 300 µM in each case. The “EC50 Mouse GPR40” value on Mouse GPR40 (setting [5]) is “inactive”.

These data come from patent US7214495B2, “Screening method” (Takeda Pharmaceutical Company Limited, priority 2002, dated 2007).
